Laboratory results taken from the NIST ThermoML archive (doi:10.1016/j.jct.2013.09.024).

Assays:
[1] = Liquid, Vibrating tube method
[2] = xn = mol fraction of the nth substance listed; details: Liquid, Vibrating tube method, x2 = 0

CC1(C)C(=O)[C@]2(C)CC[C@H]1C2 [(-)-fenchone]
mass density [kg/m3], [1]
Details	101 kPa	20000 kPa	25000 kPa	30000 kPa	35000 kPa	40000 kPa
283.15 K	953.27	965.6	968.5	971.3	974	976.6
298.15 K	940.67	954	957.1	960	962.9	965.7
313.15 K	928.04	942.3	945.6	948.7	951.8	954.7
328.15 K	915.39	930.8	934.2	937.6	940.9	944

CCO [ethanol]
mass density [kg/m3], [1]
Details	101 kPa	20000 kPa	25000 kPa	30000 kPa	35000 kPa	40000 kPa
283.15 K	797.99	813.3	816.8	820.2	823.4	826.6
298.15 K	785.2	801.7	805.4	809	812.5	815.8
313.15 K	772.15	790.1	794.1	797.8	801.5	805
328.15 K	758.71	778.1	782.4	786.4	790.3	794.1

CCO [ethanol] + CC1(C)C(=O)[C@]2(C)CC[C@H]1C2
mass density [kg/m3], [2]
Details	101 kPa	20000 kPa	25000 kPa	30000 kPa	35000 kPa	40000 kPa
283.15 K	797.99	813.3	816.8	820.2	823.4	826.6
298.15 K	785.2	801.7	805.4	809	812.5	815.8
313.15 K	772.15	790.1	794.1	797.8	801.5	805
328.15 K	758.71	778.1	782.4	786.4	790.3	794.1
